Test results reported in PMC2908543, “Uropathogenic Escherichia coli Modulates Immune Responses and Its Curli Fimbriae Interact with the Antimicrobial Peptide LL-37” (PLoS Pathogens, 2010).
“Also recorded” adds a separate entry of the source.

Legend:
[1] = target: T1, CsgA polymerization (Escherichia coli, UniProt P28307); assay: CsgA polymerization, Thioflavin T assay, Tecan plate reader; assay type: biochemical; conditions: 20 µM ThT, 37°C
T1 construct: made in house; host or cells: E. coli LSR12 (C600::csg), co-expressed with CsgG
T1 sequence (P28307 21-151): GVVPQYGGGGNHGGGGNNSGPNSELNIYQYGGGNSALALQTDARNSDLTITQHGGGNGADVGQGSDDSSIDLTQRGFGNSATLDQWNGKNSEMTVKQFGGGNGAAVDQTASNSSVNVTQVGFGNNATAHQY
Procedure: (§1) CsgA-His6 and CsgG, a lipoprotein that is required for CsgA secretion, were overexpressed in LSR12 (C600::csg). The purification procedure of recombinant CsgA-His6 was performed as previously described with some modifications. The filtrate was incubated with nickel-nitrilotriacetic acid (Ni-NTA) agarose (Invitrogen) for 1 h at 4°C with shaking, centrifuged at 200×g for 5 min and transferred to a polyprep chromatography column (Bio-Rad, Hercules, CA, USA). To confirm protein identity of CsgA-His6, the isolated protein was prepared and subjected to SDS-PAGE as described below, and thereafter the protein was transferred from the gel to a polyvinylidene fluoride (PVDF) membrane (Invitrogen) at 160 mA for 60 min. The band of 15 kDa, corresponding to the molecular weight of CsgA-His6, was excised from the membrane stained with Coomassie Blue and analysed with N-terminal sequence analysis as has been described. Since it has previously been shown that CsgA-His6 has the same polymerizing properties as wild-type CsgA [59], we refer to CsgA-His6 as CsgA.
Purified recombinant monomeric CsgA (10 µM) with or without different concentrations of the peptides LL-37, sLL-37 or VIP was mixed with 20 µM of the fiber-specific fluorescent probe ThT (Sigma-Aldrich). Fluorescence was measured with a Tecan infinite M200 reader (Tecan Nordic AB, Täby, Sweden). The excitation and emission wavelength was 430 and 490 nm, respectively. Measurements were conducted at 37°C every 10 min after shaking the sample for five seconds. Background fluorescence of the peptides themselves was subtracted.

[2] = system: recombinant polymerized CsgA; assay: Precipitation of LL-37 with polymerized CsgA, Western blot of supernatant; assay type: binding, Escherichia coli; conditions: 0.1 µM LL-37 in PBS with 5 µM recombinant polymerized CsgA, 1 h at 37°C
Procedure: as §1
LL-37 (0.1 µM in PBS) was mixed with 5 µM wild-type curli, or 5 µM recombinant polymerized CsgA. As control, the same concentration of LL-37 without curli or CsgA was utilized. […] An aliquot of the supernatants was analyzed for the presence of LL-37 with Western blot. […]

[3] = target: T2, monomeric CsgA (Escherichia coli, UniProt P28307); assay: Surface plasmon resonance, monomeric CsgA; conditions: monomeric CsgA immobilized (2000 response units), 0.1 µM peptide, 20 µl/min for 3 min, HBS-EP, Biacore 3000; binding constants not determinable
T2 construct: made in house; host or cells: E. coli LSR12 (C600::csg), co-expressed with CsgG
T2 sequence (P28307 21-151): as above
Procedure: Binding analysis of LL-37 to both monomeric and polymeric CsgA was performed with surface plasmon resonance (Biacore 3000 instrument; Biacore AB, Uppsala, Sweden). Both monomeric and polymeric CsgA was immobilized on a CM5 sensor chip (Biacore AB) surface by amine coupling. The chip surface was normalized in 70% glycerol and lanes on the chip were activated with injection of 35 µL 0.05 M N-hydroxysuccinimide (NHS)/0.2 M N-ethyl-N′-[3-dimethylamino) propyl]carbodiimide (EDC). Polymeric or monomeric CsgA (1 µM in 10 mM sodium acetate, pH 4.5) was then immobilized on the chip to 7000 response units and 2000 response units, respectively. After immobilization, the lanes were subjected to 60 µL ethanolamine (1 M, pH 8.5) to deactivate remaining activated carboxylic groups. One lane, activated and deactivated, was used as negative control (without addition of CsgA). Standard Biacore HBS-EP (Biacore AB) was utilized as running buffer, and 0.1 µM LL-37, sLL-37 or VIP were injected at 20 µl/min for 3 min. The surface was regenerated after each cycle with 100 mM HCl.

[4] = system: Pseudomonas aeruginosa; conditions: ref [46]; cited from earlier work
From the text: Biofilm inhibition by antimicrobial polypeptides has previously been described for Pseudomonas aeruginosa. […] A direct interaction with biofilm components was not investigated in these studies. The effect was rather related to an influence of LL-37 on the bacterial gene expression profile or an influence of lactoferrin on free iron. These and our findings stress an important anti-biofilm role of antimicrobial polypeptides in host defense. It is likely that the anti-biofilm activit ...

[5] = system: curli-mediated biofilm formation by E. coli; assay: Effect on formation of biofilm, crystal violet microtiter plate; assay type: cell-based, Escherichia coli
Procedure: To measure the ability of the bacteria to adhere and to form biofilm a crystal violet assay in polystyrene microtiter plates (Costar, Corning, NY, USA) was performed. Bacteria were grown in Luria-Bertani (LB) broth without salt for 24 h at 37°C without shaking. Biofilm was then stained with crystal violet (3%). The dye was solubilized with ethanol (95%) and the optical density was measured at 570 nm.
Plates were filled with 90 µL bacterial culture of planktonic cells and 10 µL of aqueous solution of LL-37 in the same concentrations as in the susceptibility assay. As control peptides, sLL-37 (Innovagen AB) and VIP [27] with similar structural properties as LL-37 were utilized. The plates were incubated without shaking at 37°C for 20 h. After incubation, the amount of biofilm formed was determined as described above.

## CC[C@H](C)[C@H](NC(=O)[C@H](CCCCN)NC(=O)[C@H](CCC(=O)O)NC(=O)[C@H](CCCCN)NC(=O)[C@H](CO)NC(=O)[C@H](CCCCN)NC(=O)[C@H](CCCNC(=N)N)NC(=O)[C@H](Cc1ccccc1)NC(=O)[C@H](Cc1ccccc1)NC(=O)[C@H](CC(=O)O)NC(=O)CNC(=O)[C@H](CC(C)C)NC(=O)[C@@H](N)CC(C)C)C(=O)NCC(=O)N[C@@H](CCCCN)C(=O)N[C@@H](CCC(=O)O)C(=O)N[C@@H](Cc1ccccc1)C(=O)N[C@@H](CCCCN)C(=O)N[C@@H](CCCNC(=N)N)C(=O)N[C@H](C(=O)N[C@H](C(=O)N[C@@H](CCC(N)=O)C(=O)N[C@@H](CCCNC(=N)N)C(=O)N[C@H](C(=O)N[C@@H](CCCCN)C(=O)N[C@@H](CC(=O)O)C(=O)N[C@@H](Cc1ccccc1)C(=O)N[C@@H](CC(C)C)C(=O)N[C@@H](CCCNC(=N)N)C(=O)N[C@@H](CC(N)=O)C(=O)N[C@@H](CC(C)C)C(=O)N[C@H](C(=O)N1CCC[C@H]1C(=O)N[C@@H](CCCNC(=N)N)C(=O)N[C@H](C(=O)N[C@@H](CCC(=O)O)C(=O)N[C@@H](CO)C(=O)O)[C@@H](C)O)C(C)C)[C@@H](C)CC)C(C)C)[C@@H](C)CC [LL-37]
[1]; 10 µM CsgA with different concentrations of peptide
  inhibition of CsgA polymerization (ThT fluorescence): inhibited by LL-37 in a dose-dependent manner
[1]; 10 µM CsgA, molar ratio 1∶1 (CsgA∶LL-37), excitation 430 nm, emission 490 nm
  inhibition of CsgA polymerization (ThT fluorescence): fiber formation was completely inhibited
[2]
  LL-37 in supernatants after precipitation: pronounced decrease of LL-37 in supernatants; also recorded: the levels of LL-37 decreased in the supernatants
[3]
  binding / association and dissociation by SPR: higher association with CsgA than the control peptides; also recorded: stronger association and lower dissociation rates
[4]
  bacterial surface motility mediated by type IV pili: increased bacterial surface motility
[5]; 2.5 µM LL-37, wild-type strain expressing curli and cellulose (data not shown)
  reduction of biofilm formation: more than 80%
[5]; 2.5 µM peptide, cellulose-negative, curli-expressing E. coli strain, 37°C, 20 h, two experiments in triplicates
  reduction of biofilm formation: more than 80%
[5]; qualitative comparison
  biofilm-inhibitory versus bactericidal concentrations: much lower than bactericidal concentrations
